The nature of data set [1]: Photostability under continuous excitation. It is filed as physicochemical. The following applies: 10 μM in water, continuously excited for 50 mins. Here is the method:
A 75 W Xenon arc lamp (Hamamatsu, San Jose, California, USA) with 420-470 nm bond pass filter (MF445-45, Thorlabs, Newton, New Jersey, USA) was used as the light source for the F16 derivatives, Rhodamine 6G, and Mitotracker® Green. Analogously, a 540-580 nm bond pass filter (MF559-34, Thorlabs, Newton, New Jersey, USA) was used to excite Mitotracker Red. All the dyes were dissolved in water at a 10 μM concentration in 700 μL micro quartz cuvettes (10 mm, Sigma-Aldrich, St. Louis, MO, USA). They were continuously excited for 50 mins. During this period, the fluorescence intensity was measured every 5 mins at 525 nm (F16s, Rhodamine 6G, Mitotracker Green) or 600 nm (Mitotracker Red). Relative fluorescence intensity change was monitored over time.

A short description of data set [2]: Fluorescence quantum yield against Rhodamine 6G. Conditions: in ethanol, Rhodamine 6G as reference. The format is physicochemical. Here is the method: The quantum yield of compounds (1) through (11) was measured in ethanol using Rhodamine 6G as a reference.
The fluorescence quantum yields of the compounds were determined using the formula (ϕ=ϕs(Fx/Fs) (As/Ax), where ϕ is quantum yield, F is the integrated area under the corrected emission spectrum, and A is the absorbance at the excitation wavelength; the subscripts x and s refer to F16s and the standard, respectively. Rhodamine 6G (OF 95%) in ethanol was used as the standard. All compounds and Rhodamine 6G were dissolved in ethanol in 5 different concentrations with the absorbance lower than 0.1 at 425 nm. The corresponding 5 different fluorescences of the compounds and Rhodamine 6G were excited at 425 nm and the emission spectra from 450 nm to 650 nm were obtained for the following integrated area measurement. All data was analyzed using Origin Pro 9.0 software (OriginLab, Northampton, Massachusetts, USA) to get the compounds' final quantum yield.

For data set [3], the system named is bladder cancer T24 cells, non-small cell lung cancer (NSCLC) H838 cells, normal HIN-3T3 cells. Briefly: In vitro cytotoxicity, anti-tumor activity and selectivity against normal cells. The following applies: Homo sapiens, NCI-H838, 72 h, 3 days. It is filed as cell-based. Here is the method: (§1) The cytotoxicity of compounds (1) through (11) was tested in vitro with bladder cancer T24 cells, non-small cell lung cancer (NSCLC) H838 cells, and normal HIN-3T3 cells (FIG. 4). All test cell lines were incubated in 96-well plates overnight at a density of 3000 cells/well. The culture medium was replaced with 200 μL of culture medium, into which the testing compound was dispersed at various concentrations (1.95-500 μM). After incubating for 3 days, the viable cell numbers were checked and directly counted under microscopy (10×). A minimum of 1 mm×1 mm area was counted from each of at least three widely separated regions of cell culture. The cell proliferation rate was calculated by the following formula: cell proliferation rate (%)=(average cell number of sample wells/average cell number of control wells)×100%. The intact culture medium was evaluated as a control.

The nature of data set [4]: UV absorbance of the compounds. It is filed as physicochemical. The following applies: 31 μM in water. How it is done: The absorbance and fluorescence of delocalized lipophilic cation compounds (1) through (11) were measured. UV absorbance of the compounds was recorded on an Agilent 8453 UV spectrophotometer at a concentration of 31 μM in water. Fluorescence was recorded on a Fluoromax-3 spectrafluorometer (Jobin Yvon) at a concentration of 7.8 μM in water.

Another data set relates to mitochondria. Briefly: Mitochondrial targeting, fluorescence microscopy of stained cells. It is filed as cell-based. The following applies: NIH-353, H838, and T24 cell lines. How it is done:
The mitochondrial targeting properties of compounds (1) through (11) were tested. 3 μM compounds were added to cells grown in a MatTek glass-bottom culture dishes (Ashland, Massachusetts) for 1 h and washed with PBS (phosphate-buffered saline) three times. After replacement of the medium, cells were imaged using a fluorescent microscope (Zeiss) with a 63× oil or 20× objective lens (excited in the GFP channel).
Mitotracker@ Red (Molecular Probes) and Hoechst (Thermo Scientific) were added to the medium to stain the mitochondria and nuclei, following the manufacturer's procedures. Cells were photographed using a 63× oil or 20× objective lens.

The test system of data set [5] is non-small cell lung cancer (NSCLC) H838 cells. Briefly: In vitro cytotoxicity, H838. The format is cell-based. Conditions: Homo sapiens, NCI-H838, 72 h, 3 days. Here is the method: as §1
For another data set, the system named is H838 cells. Briefly: Dependence of mitochondrial accumulation on mitochondrial membrane potential. It is filed as cell-based. How it is done: To examine whether the mitochondrial membrane potential (ΔΨm) causes the accumulation of delocalized lipophilic cation compounds in mitochondria, H838 cells were preincubated with medium containing high concentrations of K^+ ions (i.e. 137 mM), to depolarize the mitochondrial membrane, or low concentrations of K^+ ions (i.e. 3 mM). Next, 3 μM of compound (3) was added and the cells were incubated for 30 minutes.

The next data set relates to bladder cancer T24 cells. Briefly: In vitro cytotoxicity, T24. The format is cell-based. Conditions: Homo sapiens, T-24, 72 h, 3 days. How it is done:
as §1

Data set [6] concerns human lung adenocarcinoma HCC827 xenograft. Briefly: Tumor growth and body weight in the HCC827 xenograft. It is filed as in vivo, nude mice. Here is the method:
(§2) In vivo studies on the effect of compound (3) on the tumor growth and body mass of a mouse model were conducted. Female athymic nude mice (nu/nu) from 4-6 weeks old were obtained from Charles River Laboratories (Boston, MA, USA) and kept under sterile conditions. 5×10^6 human lung adenocarcinoma HCC827 cells suspended in 150 μL of PBS were inoculated subcutaneously in the right shoulder of the nude mice. When the tumors reached 3˜5 mm in diameter, the tumor bearing mice were administered i.v. with compound (3) (dissolved in 150 μL PBS, with 2 μL DMSO) at 15 mg/kg on days 1, 3, 5, 7, 9, 11, 13, 15, 17, 19, 21. Correspondingly, untreated tumor-bearing mice serving as controls were administered i.v. with 150 μL 1×PBS pH 7.4 (with 2 μL DMSO) on the same days as the treated mice. Ten mice were used for each group. Length and width of the elliptical tumors were measured by Vernier caliper after every intravenous injection. Modified ellipsoid formula ½ (Length×Width^2) was used to calculate the tumor size. The tumor growth was calculated with the ratio of final volume (FV) minus initial volume (IV) to initial volume (IV).

In data set [7] the test system is subcutaneous HCC827 tumor. Briefly: In vivo fluorescent imaging of mice bearing HCC827 tumors. Details: species or system nude mice. Conditions: 15 mg/kg intravenous. Here is the method: as §2, with “(IV). In vivo fluorescent imaging was taken 40 minutes and 2 hours after the injection of compound (3) 15 mg/kg. IVIS spectrum instrument was used. Excitation wavelength was set at 450 nm. Collection wavelength was set at 550 nm, using a 3s acquisition time. […]” for “(IV).”

The next data set deals with carcinoma cell. Briefly: Flow cytometry of carcinoma cell growth. It is filed as cell-based. (In general: A flow cytometer gives signals particle by particle.)
For data set [8], the system named is NSCLC cell lines HCC827, H838, HCC4006, H1693, H2030, H2228, A549, H1437, H1944. Briefly: Cytotoxicity in nine lung cancer cell lines. The format is cell-based. The following applies: all nine NSCLC cell lines.
A further data set relates to H2228 cell line. Briefly: In vitro cytotoxicity, H2228. The format is cell-based.

pIC50: −log10 of the molar value.

As for `Cn1cc(/C=C/c2cc[n+](C)cc2)c2cc(F)ccc21` [(1)], the photostability entry in [1] is “bleached relatively easily”. Further, the quantum yield entry in data set [2] was “around 12%”.

As for `C[n+]1ccc(/C=C/c2c[nH]c3c2ccc2ccccc23)cc1` [(2)], the pIC50 in data set [3] was 5.21 to 6.44. Also, in data set [2], the quantum yield result is on record as “around 12%”.

Regarding `C[n+]1ccc(/C=C/c2c[nH]c3ccc(Br)cc23)cc1` [(5)], in [3], the pIC50 is 5.21 to 6.44. Also, in data set [4], the “absorption peak / absorption maxima” value is on record as “about 450 nm”.

`C[n+]1ccc(/C=C/c2c[nH]c3ccc(F)cc23)cc1` [(7)]: the quantum yield entry in data set [2] was “around 20%”.

Turning to `C[n+]1ccc(/C=C/c2c(Cl)[nH]c3ccccc23)cc1` [(8)], the photostability entry in data set [1] is “bleached relatively easily”.

Turning to `Cc1ccc2[nH]c(C)c(/C=C/c3cc[n+](C)cc3)c2c1` [(9)], in [1], the photostability entry is recorded as “bleached relatively easily”. For the same compound, in data set [4], the “absorption peak / absorption maxima” value was “about 450 nm”. Further, the quantum yield entry in data set [2] is reported as “around 20%”.

Consider `Cc1cc(Br)cc2c(/C=C/c3cc[n+](C)cc3)c[nH]c12` [Compound (3)], for which the “colocalization with MitoTrack” value in the data set on mitochondria was “colocalization”. Also, the pIC50 in data set [5] was 6.44; in the data set on bladder cancer T24 cells, 6.09; in data set [3] it was 5.21 to 6.44; with H2228 cell line (Homo sapiens, NCI-H2228, H2228 cell line) it was 7.31. Also, in the data set on H838 cells (3 μM, 30 minutes, preincubation with 3 mM K+), the “accumulation in the mitochondria, low K+” value is reported as “more accumulation”. Moreover, the “accumulation in the mitochondria, high K+” value with H838 cells (3 μM, 30 minutes, preincubation with 137 mM K+) is “less accumulation”. In the data set on H838 cells (FCCP added to the cells), the “mitochondrial staining after addition of FCCP” value was “immediately decayed and diffused into the cytoplasm”. Besides, the “tumor volume compared to PBS treated group” value in [6] (15 mg/kg i.v. on days 1 to 21 every other day, 21 days PI, p=0.0426) is reported as “decreased dramatically”. Besides, in [6] (15 mg/kg i.v., p=0.477), the “bodyweight between control and treated group” value was “no significant difference”. Also, the “tumor pathologic section H&E staining” value in [6] (HCC827 tumor of treated mice) was “caused tumor inflammatory cell infiltration, fibrous tissue proliferation, and cell apoptosis”. The “tumor to background ratio” value in [7] (2 h post injection) was approximately 2. Moreover, the organ accumulation result in data set [7] (compared with liver, spleen, heart, lung, and brain) was “Tumor, kidney, bone, stomach, bowel, pancreas and skin accumulated more”. Also, the “carcinoma cell growth by flow cytometry” value in the data set with carcinoma cell is on record as “inhibited carcinoma cell growth in a time-dependent manner”. In addition, the “ATCA (antitumor activity) in NSCLC cell lines” value in data set [8] is listed as “impressively high ATCA”. The “anti-cancer cell to anti-normal cell ratio” value in the data set with H2228 cell line (H2228 against 3T3) is recorded as “around 225”. In addition, in data set [2], the quantum yield result is reported as “around 20%”.

Compound `C[n+]1ccc(/C=C/c2c[nH]c3ccc(C#N)cc23)cc1` [Compound (4)] had a pIC50 in data set [3] of 5.21 to 6.44. The quantum yield in data set [2] is 49.1%.

The pIC50 is the negative decadic logarithm of the IC50, by convention in mol/L. A lower pIC50 goes with a large IC50.

For the origin of these results see patent US12172976B2, “Delocalized lipophilic cation compounds and methods of use thereof” (The Board of Trustees of the Leland Stanford Junior …, priority 2019, dated 2024).
